The target of experiment [1] is T1, α-syn pathology (Lewy pathology) in human PD brain tissue (Homo sapiens, UniProt P37840).
T1 construct: tissue NIH Neurobiobank; host or cells: post-mortem human PD brain sections (frontal cortex, pons)
Kind of experiment: Fluorescent staining of post-mortem human PD brain tissue sections. The following applies: frontal cortex sections, co-stained with Syn211 or Syn303, confocal microscopy. As for the experimental part:
Sections from the pons and frontal-cortex of the PD brain were permeabilized and treated sequentially with antibody [Anti-alpha-Synuclein (aa 121-125) Antibody, clone Syn 211] and 1 μM solution of each compound and visualized by confocal microscopy. […] Column II depicts ligand fluorescence. Column III depicts fluorescence from the antibody. Column IV is a composite image created by merging the first three images. […] The pattern and labeling intensity appear similar in the antibody channel. […] In up close Z-stacked images of the treated tissue (Row C), the pathology appears to surround dark holes (arrows) in the ligand and antibody channels.
To further characterize the sites labeled by the ligands and antibody Syn211 tissue staining experiments, contiguous cortical sections were treated with compound 8 and then either Syn211 or Syn303. As expected, the sections treated with compound 8 and Syn211 (FIG. 17, first row) show identical ligand and antibody labeling patterns that colocalize in the composite image. Both the ligand and antibody appear to label all forms of pathology present on the tissue. […]
Midbrain tissue (Frontal cortex 5469) was embedded with Tissue-Tek O.C.T. Compound and kept in liquid nitrogen for 30 min. […] The tissue was imaged with Lecia DMi8 Motorized Fluorescence Microscope using standard excitation/emission filters for Alexa Fluor 488 or Alexa Fluor 647.

A further experiment has as its target T2, α-syn fibrils (Homo sapiens, UniProt P37840).
T2 construct: purchased R-peptide S-1001-2
Kind of experiment: α-Syn fibril/ligand binding assay (fluorescence saturation binding). As to conditions: for selectivity for α-syn versus Aβ fibrils (comparison of Kd values): Kd Aβ fibrils vs Kd α-syn fibrils; for Kd: synthetic α-syn fibrils 2.5 μM, PBS, 37° C., 1 h. As for the experimental part:
To this suspension was added 0.2 mL phosphate buffer (10 mM, pH 7.5). The soluble materials were removed by spinning for 5 min in a centrifuge (18000 g/s). The process was repeated four times. After the fourth time, the peptide was transferred into a microtube (200 μl), and 2.5 μl of 300 mM MnCl (made in water) was added. […] The fibrils formed were spun down at 21,000 g/s for 6 min. The supernatant was discarded, and the fibril pellet was resuspended in 200 μl PBS buffer (pH=7.4).
The mixture was incubated at 37° C. for 1 h with shaking. The mixture was spun down at 21,000 g/s for 15 min to separate the fibrils. The precipitate was washed twice with Tris-HCl and resuspended in 200 μL buffer. […] All data points were performed in triplicate. The Kd and the maximal number of binding sites (Bmax) values were determined by fitting the data to the equation Y=Bmax×X/(X+Kd) by nonlinear regression using MATLAB software (R2019B).

Experiment [2] concerns β-amyloid plaques in human AD brain tissue. Kind of experiment: Fluorescent staining of post-mortem human AD brain tissue sections. The following applies: cortical sections, co-stained with 4G8 antibody. The text has this:
To assess the observed selectivity in α-syn versus Aβ fibril binding on aggregates in human tissue, equimolar concentrations of ligands 8, 32, and 37 were further evaluated on PD tissue as described above, alongside cortical sections from neuropathologically verified post-mortem brain samples of AD patients. […] A similar labeling pattern and efficiency are observed in the antibody channel (column III). […] The antibody, anti-β-Amyloid, 17-24 Antibody (4G8), highlights both dense core and diffuse Aβ pathology (column III).
Midbrain tissue (Frontal cortex 5590) was embedded with Tissue-Tek O.C.T. Compound and kept in liquid nitrogen for 30 mins. The embedded tissue was sliced into 30 μm thick sections with Lecia Biosystems Cryostats under −20° C. and mounted onto Precleaned Microscope Slides. The section was washed with 1× PBST two times and then loaded into 10% formalin solution for 20 mins. The section was washed with 1× PBS three times and permeabilized with 0.1% Triton-X 100 for 10 min. The section was washed with 1× PBS two times and incubated with 2% normal Donkey serum at room temperature for 1 h. […] The tissue was imaged with Lecia DMi8 Motorized Fluorescence Microscope using standard excitation/emission filters for Alexa Fluor 488 or Alexa Fluor 647.

Results on two compounds are retold here after patent US11779664B2, “Targeted contrast agents for MRI of alpha-synuclein deposition” (Texas Children's Hospital, priority 2020, dated 2023).

“Also recorded” adds a separate entry of the source.

What is called Kd is a measure of binding affinity in units of concentration. A higher Kd goes with a looser complex.

Take `COc1cc(/C=C/C=C2\Cc3ccccc3C2=O)ccc1O` [compound 8, (E)-2-((E)-3-(4-Hydroxy-3-methoxyphenyl)allylidene)-2,3-dihydro-1H-inden-1-one]: the “labeling of Lewy pathology in PD brain sections” value in experiment [1] is “avidly labels Lewy pathology; also recorded: labels all conformations of the pathology; also recorded: avid labeling of both large and fine deposits of the pathology”. Besides, on α-syn fibrils, the “selectivity for α-syn versus Aβ fibrils (comparison of Kd values)” value came to 14.4 fold and the Kd was found to be 9.7 nM. Moreover, in experiment [2], the “labeling of Aβ pathology in AD brain sections” value is given as “mostly dense core Aβ plaques”.

For the compound `O=C(O)c1ccc(-c2ccc(/C=C/C=C3\Cc4ccc(O)cc4C3=O)cc2)cc1` [compound 32, 4′-((E)-3-((E)-6-Hydroxy-1-oxo-1,3-dihydro-2H-inden-2-ylidene)prop-1-en-1-yl)-[1,1′-biphenyl]-4-carboxylic acid], the “labeling of Lewy pathology in PD brain sections” value in experiment [1] is on record as “avid labeling of Lewy pathology”. Also, on α-syn fibrils, the “selectivity for α-syn versus Aβ fibrils (comparison of Kd values)” value was determined as 26 fold and the Kd was determined as 18.8 nM.
